The source of these data is patent publication US7935722B2 (Eli Lilly and Company, priority 2005, dated 2011).

For series [1], the target named is T1, human androgen receptor (AR) (Homo sapiens, UniProt P10275).
T1 construct: expressed in transfected cells; host or cells: mouse myoblast C2C12 cells, transiently co-transfected
T1 sequence (P10275 1-920): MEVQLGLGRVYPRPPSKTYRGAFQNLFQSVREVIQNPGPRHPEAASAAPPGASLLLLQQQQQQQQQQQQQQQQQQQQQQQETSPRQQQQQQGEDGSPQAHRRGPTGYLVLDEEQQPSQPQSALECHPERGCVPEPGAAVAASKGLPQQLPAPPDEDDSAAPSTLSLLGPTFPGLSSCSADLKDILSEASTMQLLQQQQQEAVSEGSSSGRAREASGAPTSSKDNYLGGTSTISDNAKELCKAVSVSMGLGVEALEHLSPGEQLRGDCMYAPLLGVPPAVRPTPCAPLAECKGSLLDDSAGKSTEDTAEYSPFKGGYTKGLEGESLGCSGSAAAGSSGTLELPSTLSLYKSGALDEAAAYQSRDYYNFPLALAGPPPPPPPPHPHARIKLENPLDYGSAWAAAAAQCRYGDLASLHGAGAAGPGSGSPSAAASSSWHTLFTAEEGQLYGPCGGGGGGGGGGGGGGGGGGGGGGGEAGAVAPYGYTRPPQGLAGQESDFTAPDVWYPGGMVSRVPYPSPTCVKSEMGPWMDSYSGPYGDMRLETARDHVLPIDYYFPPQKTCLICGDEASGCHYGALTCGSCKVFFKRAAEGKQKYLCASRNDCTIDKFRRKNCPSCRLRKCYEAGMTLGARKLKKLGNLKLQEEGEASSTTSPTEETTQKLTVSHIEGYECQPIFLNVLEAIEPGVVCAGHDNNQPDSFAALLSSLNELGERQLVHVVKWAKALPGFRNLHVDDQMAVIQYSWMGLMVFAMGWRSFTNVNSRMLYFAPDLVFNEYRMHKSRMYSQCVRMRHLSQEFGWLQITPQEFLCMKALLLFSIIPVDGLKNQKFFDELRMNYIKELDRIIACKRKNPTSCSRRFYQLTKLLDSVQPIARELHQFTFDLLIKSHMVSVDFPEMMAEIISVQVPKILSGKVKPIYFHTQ
The experiment in a line: C2C12 AR/ARE reporter assay. The class given is cell-based. In short, it runs like this:
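Mouse C2C12 myoblasts co-transfected with AR/ARE reporter were plated in charcoal-stripped serum and treated for 48 h with compound from about 0.01 nM to 10 μM. Luciferase activity gave EC50 by 4-parameter logistic fit. Efficacy is expressed as % of maximal stimulation by 10 nM methyltrienolone.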

Series [2] concerns the target T2, human AR (androgen receptor) (Homo sapiens, UniProt P10275).
T2 construct: expressed in transfected cells; host or cells: 293 cells (293-AR lysate)
T2 sequence (P10275 1-920): T1 sequence (P10275 1-920)
The experiment in a line: Steroid hormone nuclear receptor binding assay, AR binding. In short, it runs like this: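 Competition binding with lysates of 293 cells overexpressing human AR, [3H]-methyltrienolone tracer, compounds from about 0.01 nM to 10 μM, overnight at 4 °C; non-specific binding set with 500 nM methyltrienolone. Bound tracer counted by scintillation after charcoal-dextran separation; IC50 converted to Ki by Cheng-Prusoff using Kd from saturation binding.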

The mark [3] stands for this setting: C2C12, read-out: C2C12 % Efficacy.

Structures are written as SMILES. Several values for one entry are separate records, joined by “and”; a condition that tells them apart may be missing. Identical values can stand only once. Like-named read-outs stand apart in the source and are kept apart here.

For the compound `COC(=O)Nc1ccc2c(c1)c1c(n2Cc2cccc(F)c2)CC[C@@H](NC(=O)C(C)C)C1` [Example 190, (R)-[9-(3-Fluorobenzyl)-6-isobutyrylamino-6,7,8,9-tetrahydro-5H-carbazol-3-yl]-carbamic acid methyl ester], the melting point is 111 to 115 °C. Besides, the EC50 in series [1] is 2.2 nM. For the same compound, in series [1] (setting [3]), the Emax stood at 86%. In series [2], this compound came in with a Ki of 6.7 nM.

The compound `CC(C)C(=O)N[C@@H]1CCc2c(c3cc(-c4ccno4)ccc3n2Cc2cccc(F)c2)C1` [Example 192, (R)-N-[9-(3-Fluoro-benzyl)-6-isoxazol-5-yl-2,3,4,9-tetrahydro-1H-carbazol-3-yl]-isobutyramide] gave a melting point of 238 to 241 °C. In series [1], this compound yielded a half-maximal effective concentration (EC50) of 7.7 nM. For the same compound, the Emax in series [1] (setting [3]) amounted to 66.5%. In series [2], this compound showed an inhibitory constant (Ki) of 2.6 nM.

Consider `N#Cc1ccc2c(c1)c1c(n2Cc2cccc(F)c2)CCC(NC(=O)C2CC2)C1` (centres unmarked) [Example 193, Cyclopropanecarboxylic acid[6-cyano-9-(3-fluorobenzyl)-2,3,4,9-tetrahydro-1H-carbazol-3-yl]amide], for which the melting point was 208 to 210 °C and 207 to 209 °C. Besides, the 50% effective concentration (EC50) in series [1] turned out to be 7.9 nM. Besides, in series [1] (setting [3]), the Emax stood at 92.7%. Moreover, the Ki in series [2] came out at 4.3 nM.

The compound `N#Cc1ccc2c(c1)c1c(n2Cc2cccc(F)n2)CC[C@@H](NC(=O)C2CC2)C1` [Example 195, Cyclopropanecarboxylic acid[6-cyano-9-(6-fluoro-pyridin-2-ylmethyl)-2,3,4,9-tetrahydro-1H-carbazol-3-yl]-amide] gave a melting point of 243 to 245 °C. In series [1], this compound yielded a 50% effective concentration (EC50) of 2.7 nM. For the same compound, the Emax in series [1] (setting [3]) is 96.5%. In addition, the Ki in series [2] amounted to 4.3 nM.

Take `N#Cc1ccc2c(c1)c1c(n2Cc2ccccn2)CC[C@@H](NC(=O)C2CC2)C1` [Example 196, Cyclopropanecarboxylic acid[6-cyano-9-(pyridin-2-ylmethyl)-2,3,4,9-tetrahydro-1H-carbazol-3-yl]-amide]: the melting point was 239 to 241 °C. This compound also returned an EC50 in series [1] of 15.3 nM. The Emax in series [1] (setting [3]) worked out at 95.2%. Also, the Ki in series [2] came out at 16.1 nM.

As for `CO/N=C/c1ccc2c(c1)c1c(n2Cc2cccc(F)c2)CCC(NC(=O)C(C)C)C1` (centres unmarked) [Example 199, N-[9-(3-Fluoro-benzyl)-6-(methoxyimino-methyl)-2,3,4,9-tetrahydro-1H-carbazol-3-yl]-isobutyramide], the melting point is 180 to 182 °C. The Emax in series [1] (C2C12 AR/ARE reporter assay, average of n trials, read-out: C2C12 % Efficacy) is 83.6%. The EC50 in series [1] (C2C12 AR/ARE reporter assay, average of n trials, read-out: C2C12 EC50) worked out at 1.8 nM. Moreover, in series [2] (average of n trials, read-out: AR binding Ki), the Ki came out at 6.6 nM.

In the case of `Cc1cc(-c2ccc3c(c2)c2c(n3Cc3cccc(F)c3)CC[C@@H](NC(=O)C3CC3)C2)no1` [Example 204, (R)-Cyclopropanecarboxylic acid[9-(3-fluoro-benzyl)-6-(5-methyl-isoxazol-3-yl)-2,3,4,9-tetrahydro-1H-carbazol-3-yl]-amide], the melting point lay within 190 to 192 °C. Moreover, the concentration for a half-maximal effect (EC50) in series [1] was determined as 2.7 nM. For the same compound, the Emax in series [1] (setting [3]) came out at 90.8%. The compound further yielded a Ki in series [2] of 6.8 nM.

With `CO/N=C/c1ccc2c(c1)c1c(n2Cc2cccc(F)c2)CC[C@@H](NC(=O)C2CC2)C1` [Example 205, (R)-Cyclopropanecarboxylic acid[9-(3-fluoro-benzyl)-6-(1-methoxyimino-methyl)-2,3,4,9-tetrahydro-1H-carbazol-3-yl]-amide], the melting point lay in the range of 200 to 203 °C. Besides, a half-maximal response in series [1] (EC50) required 0.5 nM. Also, in series [1] (setting [3]), the Emax is 88.4%. Further, in series [2], the inhibition constant (Ki) stood at 3 nM.

`CO/N=C/c1ccc2c(c1)c1c(n2Cc2ccccn2)CCC(NC(=O)C2CC2)C1` (centres unmarked) [Example 207, Cyclopropanecarboxylic acid[6-(1-methoxyimino-methyl)-9-pyridin-2-ylmethyl-2,3,4,9-tetrahydro-1H-carbazol-3-yl]-amide] registered a melting point of 88 to 92 °C. The same compound came in with an EC50 in series [1] of 11.6 nM. Moreover, the Emax in series [1] (setting [3]) came to 93.3%. This compound also registered an inhibitory constant (Ki) in series [2] of 41.6 nM.

Regarding `CO/N=C/c1ccc2c(c1)c1c(n2Cc2ccccn2)CC[C@@H](NC(=O)C2CC2)C1` [Example 208, (R)-Cyclopropanecarboxylic acid[6-(1-methoxyimino-methyl)-9-pyridin-2-ylmethyl-2,3,4,9-tetrahydro-1H-carbazol-3-yl]-amide], the melting point lay within 215 to 217 °C. In series [1], the midpoint of the response, the EC50, lay at 3.8 nM. The Emax in series [1] (setting [3]) was found to be 96.3%. The Ki in series [2] came out at 21.1 nM.

`CO/N=C/c1ccc2c(c1)c1c(n2Cc2cccc(F)n2)CC[C@@H](NC(=O)C2CC2)C1` [Example 209] showed a melting point of 223 to 225 °C. Moreover, in series [1], a half-maximal response (EC50) required 1.1 nM. In addition, in series [1] (setting [3]), the Emax is 95.7%. Besides, the Ki in series [2] came to 7.8 nM.
